This test deals with T1, human neutrophil elastase (HNE) (Homo sapiens, UniProt P08246).
T1 construct: purchased Sigma E8140
T1 sequence (P08246 30-267): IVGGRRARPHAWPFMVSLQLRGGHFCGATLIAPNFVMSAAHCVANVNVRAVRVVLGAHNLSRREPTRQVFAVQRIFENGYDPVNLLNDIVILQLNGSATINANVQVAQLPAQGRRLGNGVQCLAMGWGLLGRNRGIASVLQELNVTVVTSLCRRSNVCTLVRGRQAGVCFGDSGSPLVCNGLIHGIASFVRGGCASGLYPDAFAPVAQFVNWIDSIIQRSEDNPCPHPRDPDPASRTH
Nature of the test: HNE enzyme assay (fluorogenic peptide substrate MeOSuc-Ala-Ala-Pro-Val-AMC). The conditions noted are these: human leukocyte elastase, substrate 100 μM, 25° C., 30 minutes, at least two separate experiments; read-out: HNE inhibition (IC50 values). Format: biochemical. How it is done:
Compounds of this invention were tested for potency in a human neutrophil elastase (HNE) enzyme activity assay.
Assays were performed in 96-well plates in a total assay volume of 100 μl. The final concentration of elastase enzyme (human leukocyte elastase, Sigma E8140) was 0.0036 units/well […]. The peptide substrate (MeOSuc-Ala-Ala-Pro-Val-AMC, Calbiochem #324740) was used at a final concentration of 100 μM. The final concentration of DMSO was 1% in the assay buffer (0.05M Tris.HCl, 0.1M NaCl, 0.1M CaCl2, 0.0005% brij-35, pH 7.5). The enzymatic reaction was started by addition of the enzyme and incubated at 25° C. for 30 minutes. After incubation, the reaction was stopped by addition of soybean trypsin inhibitor (Sigma T9003) at a final concentration of 50 μg/well. Fluorescence was measured using a Molecular Devices fluorescence plate reader using 380 nm excitation and 460 nm emission wavelengths.
A dose response to each compound was performed, and the effect of the compound in each experiment was expressed as a percentage inhibition of the control enzyme fluorescence. Dose response curves were plotted and compound potency (IC50) was determined. Compounds were tested in at least two separate experiments.

Each structure is given as a SMILES string.

What is called IC50 is the concentration at which inhibition is half-maximal. `CC1=C(C#N)C(c2ccc(C#N)cc2)n2c(nn(CCCS(=O)(=O)CCC[N+](C)(C)C)c2=O)N1c1cccc(C(F)(F)F)c1` (stereo not shown) [Example 39, (3-{3-[6-Cyano-5-(4-cyano-phenyl)-7-methyl-3-oxo-8-(3-trifluoromethyl-phenyl)-5,8-dihydro-[1,2,4]triazolo[4,3-a]pyrimidin-2-yl]-propane-1-sulfonyl}-propyl)-trimethylammonium toluene-4-sulfonate]: the IC50 was less than 20 nM.

Source of the values: patent publication US9023855B2, “Compounds” (Chiesi Farmaceutici S.p.A., priority 2011, dated 2015).
